Drawing on patent US10758534B2 (Vertex Pharmaceuticals Incorporated, priority 2014, dated 2020), this text covers EC30 for 20 molecules.

Structures are written as SMILES.

The assay deals with T1, F508del (Homo sapiens, UniProt P13569, DEL508-508).
T1 construct: expressed in transfected cells
T1 sequence (P13569 with tags, fused parts or gaps DEL508-508): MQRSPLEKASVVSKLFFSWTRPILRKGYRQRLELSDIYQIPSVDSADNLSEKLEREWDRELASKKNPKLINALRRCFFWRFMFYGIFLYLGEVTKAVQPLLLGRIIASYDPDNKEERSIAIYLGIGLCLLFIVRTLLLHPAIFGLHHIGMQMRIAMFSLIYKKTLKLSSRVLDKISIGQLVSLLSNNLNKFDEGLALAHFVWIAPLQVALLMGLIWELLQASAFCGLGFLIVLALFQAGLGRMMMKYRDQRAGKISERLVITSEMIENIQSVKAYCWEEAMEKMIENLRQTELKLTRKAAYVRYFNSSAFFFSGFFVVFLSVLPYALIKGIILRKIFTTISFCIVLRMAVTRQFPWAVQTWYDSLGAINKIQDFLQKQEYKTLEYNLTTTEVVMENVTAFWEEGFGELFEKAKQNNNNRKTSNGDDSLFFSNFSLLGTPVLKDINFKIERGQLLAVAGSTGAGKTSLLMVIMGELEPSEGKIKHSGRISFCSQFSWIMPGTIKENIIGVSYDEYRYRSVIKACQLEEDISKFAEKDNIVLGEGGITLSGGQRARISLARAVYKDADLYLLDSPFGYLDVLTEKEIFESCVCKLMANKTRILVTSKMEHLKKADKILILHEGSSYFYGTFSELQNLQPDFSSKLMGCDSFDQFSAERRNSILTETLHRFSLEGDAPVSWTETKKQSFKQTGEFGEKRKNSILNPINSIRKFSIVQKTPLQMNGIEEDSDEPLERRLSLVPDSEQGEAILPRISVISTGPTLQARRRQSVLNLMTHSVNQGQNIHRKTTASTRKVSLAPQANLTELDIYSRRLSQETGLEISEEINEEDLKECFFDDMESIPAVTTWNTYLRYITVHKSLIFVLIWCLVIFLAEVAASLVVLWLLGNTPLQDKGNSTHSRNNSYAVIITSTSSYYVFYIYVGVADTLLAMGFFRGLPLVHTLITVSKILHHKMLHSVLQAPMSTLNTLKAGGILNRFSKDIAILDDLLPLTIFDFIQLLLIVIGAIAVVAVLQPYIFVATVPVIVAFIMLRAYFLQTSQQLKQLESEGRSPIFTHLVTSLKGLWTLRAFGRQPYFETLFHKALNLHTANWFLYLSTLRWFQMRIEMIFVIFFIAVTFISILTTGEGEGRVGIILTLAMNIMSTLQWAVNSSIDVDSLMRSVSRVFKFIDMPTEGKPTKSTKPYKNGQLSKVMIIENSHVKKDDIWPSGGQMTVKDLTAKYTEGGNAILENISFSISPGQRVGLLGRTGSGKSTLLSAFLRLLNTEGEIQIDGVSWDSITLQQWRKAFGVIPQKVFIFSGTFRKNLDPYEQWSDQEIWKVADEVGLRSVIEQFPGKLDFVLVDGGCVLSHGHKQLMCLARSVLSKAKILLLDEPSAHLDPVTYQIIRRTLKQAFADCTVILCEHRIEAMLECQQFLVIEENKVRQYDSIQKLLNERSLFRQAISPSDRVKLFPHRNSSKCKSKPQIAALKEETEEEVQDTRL
In words: Protocol 1: membrane potential optical assay (FLIPR III, voltage sensing dye), identification of potentiator compounds. The note with it: Table 3, compounds of Table 1. It is filed as cell-based. The procedure, abridged: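 Mouse NIH 3T3 fibroblasts stably expressing F508del, temperature-corrected at 27 °C for 24 h, pretreated with compound, then loaded with voltage-sensing redistribution dye. Forskolin was added in a single step with a chloride gradient (chloride-free gluconate bath; Bath Solution #1 HEPES pH 7.4). Membrane-potential fluorescence read on FLIPR III.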
Consider `CCOc1cccc2c1CN(Cc1ccc(C(C)C)cc1)C2(C)C(=O)NS(=O)(=O)c1cccc(N)n1` (centres unmarked) [Compound 1576, N-[(6-amino-2-pyridyl)sulfonyl]-4-ethoxy-2-[(4-isopropylphenyl)methyl]-1-methyl-isoindoline-1-carboxamide], for which the EC30 result was “+++ (“+++” means <3 uM)”.

Consider `CC(Oc1nc(N2C[C@@H](C)CC2(C)C)c(C(=O)NS(=O)(=O)c2cccc(N)n2)cc1F)C1CCCC1` (stereo partly drawn) [Compound 1966, N-[(6-amino-2-pyridyl)sulfonyl]-6-(1-cyclopentylethoxy)-5-fluoro-2-[(4S)-2,2,4-trimethylpyrrolidin-1-yl]pyridine-3-carboxamide], for which the EC30 result is given as “+++ (“+++” means <3 uM)”.

As to `CC1CN(c2ncccc2C(=O)NS(=O)(=O)c2cccc(Oc3ccc(Cl)cc3Cl)n2)C(C)(C)C1` (centres unmarked) [Compound 1806, N—[[6-(2,4-dichlorophenoxy)-2-pyridyl]sulfnyl]-2-(2,2,4-trimethylpyrrolidin-1-yl)pyridine-3-carboxamide], the EC30 result is listed as “+++ (“+++” means <3 uM)”.

On to `CC1CN(c2nc(C(C)(C)C)c(C3=CCCC4(C3)OCCO4)cc2C(=O)NS(=O)(=O)c2cccc(N)n2)C(C)(C)C1` (centres unmarked) [Compound 1469, N-[(6-amino-2-pyridyl)sulfonyl]-6-tert-butyl-5-(1,4-dioxaspiro[4.5]dec-8-en-9-yl)-2-(2,2,4-trimethylpyrrolidin-1-yl)pyridine-3-carboxamide], for which the EC30 entry is “++ (“++” means between 3 uM and 10 uM)”.

Consider `CC1CN(c2nc(C(C)(C)C)c(-c3ccccc3)cc2C(=O)NS(=O)(=O)c2cccc(N)n2)C(C)(C)C1` (centres unmarked) [Compound 1364, N-[(6-amino-2-pyridyl)sulfonyl]-6-tert-butyl-5-phenyl-2-(2,2,4-trimethylpyrrolidin-1-yl)pyridine-3-carboxamide], for which the EC30 result is “+++ (“+++” means <3 uM)”.

`CC(C)CC(C)Nc1ccc(-c2ccc(C(=O)NS(=O)(=O)c3cccc(N)n3)c(N3[C@H](C)CC[C@@H]3C)n2)cn1` (stereo in doubt) [Compound 1463, N-[(6-amino-2-pyridyl)sulfonyl]-6-[6-[[(1 S)-1,3-dimethylbutyl]amino]-3-pyridyl]-2-[(2S,5R)-2,5-dimethylpyrrolidin-1-yl]pyridine-3-carboxamide]: the EC30 entry is listed as “+++ (“+++” means <3 uM)”.

Regarding `CCOc1cccc2c1CN(Cc1c(C)cc(C)cc1C)C2(C)C(=O)NS(=O)(=O)c1ccc(Cl)c(N)n1` (centres unmarked) [Compound 1596, N-[(6-amino-5-chloro-2-pyridyl)sulfonyl]-4-ethoxy-1-methyl-2-[(2,4,6-trimethylphenyl)methyl]isoindoline-1-carboxamide], the EC30 result is listed as “+++ (“+++” means <3 uM)”.

Take `CC(=O)N1CCc2cc(Nc3cccc(S(=O)(=O)NC(=O)c4cccnc4N4CC(C)CC4(C)C)n3)ccc21` (centres unmarked) [Compound 1877, N—[[6-[(1-acetylindolin-5-yl)amino]-2-pyridyl]sulfonyl]-2-(2,2,4-trimethylpyrrolidin-1-yl)pyridine-3-carboxamide]: the EC30 result is “++ (“++” means between 3 uM and 10 uM)”.

As for `C[C@@H]1CN(c2nc(-c3ccccc3CO)ccc2C(=O)NS(=O)(=O)c2cccnc2N)C(C)(C)C1` [Compound 1706, N-[(2-amino-3-pyridyl)sulfonyl]-6-[2-(hydroxymethyl)phenyl]-2-[(4S)-2,2,4-trimethylpyrrolidin-1-yl]pyridine-3-carboxamide], the EC30 entry is “++ (“++” means between 3 uM and 10 uM)”.

Consider `Cc1cc(C)c(Oc2nc(-c3cnn(C(C)C)c3)ccc2C(=O)NS(=O)(=O)c2cccc(N)n2)c(C)c1` [Compound 808, N-[(6-amino-2-pyridyl)sulfonyl]-6-(1-isopropylpyrazol-4-yl)-2-(2,4,6-trimethylphenoxy)pyridine-3-carboxamide], for which the EC30 entry is “++ (“++” means between 3 uM and 10 uM)”.

In the case of `C[C@@H]1CN(c2nc(-c3ccc(OCC(C)(C)C)nc3)ccc2C(=O)NS(=O)(=O)c2cccc(N)n2)C(C)(C)C1` [Compound 1504, N-[(6-amino-2-pyridyl)sulfonyl]-6-[6-(2,2-dimethylpropoxy)-3-pyridyl]-2-[(4S)-2,2,4-trimethylpyrrolidin-1-yl]pyridine-3-carboxamide], the EC30 entry is reported as “+++ (“+++” means <3 uM)”.

With `COCC1CCN(c2nc(C(C)(C)C)ccc2C(=O)NS(=O)(=O)c2cccc(N)n2)CC1` [Compound 986, N-[(6-amino-2-pyridyl)sulfonyl]-6-tert-butyl-2-[4-(methoxymethyl)-1-piperidyl]pyridine-3-carboxamide], the EC30 entry was “++ (“++” means between 3 uM and 10 uM)”.

With `Cc1cc(C)c(Oc2nc(-n3cc(C)cn3)ccc2C(=O)NS(=O)(=O)c2cccc(N)n2)c(C)c1` [Compound 1220, N-[(6-amino-2-pyridyl)sulfonyl]-6-(4-methylpyrazol-1-yl)-2-(2,4,6-trimethylphenoxy)pyridine-3-carboxamide], the EC30 entry was “+++ (“+++” means <3 uM)”.

In the case of `CC(C)COc1cc(F)cc(-c2ccc(C(=O)NS(=O)(=O)c3cccc(N)n3)c(OC3(C)CCC3)n2)c1` [Compound 1644, N-[(6-amino-2-pyridyl)sulfonyl]-6-(3-fluoro-5-isobutoxy-phenyl)-2-(1-methylcyclobutoxy)pyridine-3-carboxamide], the EC30 entry was “+++ (“+++” means <3 uM)”.

Regarding `Cc1cc(OCCOC(C)C)nc(-c2ccc(C(=O)NS(=O)(=O)c3cccc(N)n3)c(N3C[C@@H](C)CC3(C)C)n2)c1` [Compound 1703, N-[(6-amino-2-pyridyl)sulfonyl]-6-[6-(2-isopropoxyethoxy)-4-methyl-2-pyridyl]-2-[(4S)-2,2,4-trimethylpyrrolidin-1-yl]pyridine-3-carboxamide], the EC30 entry was “+++ (“+++” means <3 uM)”.

As to `CC1CN(c2ncccc2C(=O)NS(=O)(=O)c2cccc(Nc3ccc4[nH]ccc4c3)n2)C(C)(C)C1` (centres unmarked) [Compound 1823, N—[[6-(1H-indol-5-ylamino)-2-pyridyl]sulfonyl]-2-(2,2,4-trimethylpyrrolidin-1-yl)pyridine-3-carboxamide], the EC30 result was “+++ (“+++” means <3 uM)”.

As to `CC(C)COc1cc(F)cc(-c2ccc(C(=O)NS(=O)(=O)c3cccc(N)n3)c(N3CCCC4(CC4)C3)n2)c1` [Compound 953, N-[(6-amino-2-pyridyl)sulfonyl]-2-(7-azaspiro[2.5]octan-7-yl)-6-(3-fluoro-5-isobutoxy-phenyl)pyridine-3-carboxamide], the EC30 result was “+++ (“+++” means <3 uM)”.

Take `CCOc1cccc2c1CN(Cc1c(C)cc(C)cc1C)C2(C)C(=O)NS(=O)(=O)c1ccc(CC)c(N)c1` (centres unmarked) [Compound 1584, N-(3-amino-4-ethyl-phenyl)sulfonyl-4-ethoxy-1-methyl-2-[(2,4,6-trimethylphenyl)methyl]isoindoline-1-carboxamide]: the EC30 result is recorded as “+++ (“+++” means <3 uM)”.

`COc1c(C)cccc1-c1ccc(C(=O)NS(=O)(=O)c2ccc[nH]c2=O)c(N2C[C@@H](C)CC2(C)C)n1` [Compound 1880, 6-(2-methoxy-3-methyl-phenyl)-N-[(2-oxo-1H-pyridin-3-yl)sulfonyl]-2-[(4S)-2,2,4-trimethylpyrrolidin-1-yl]pyridine-3-carboxamide]: the EC30 result is “++ (“++” means between 3 uM and 10 uM)”.

In the case of `Cc1cc(C)c(Oc2nc(C(C)(C)C)ccc2C(=O)N=S(N)(=O)c2cccc(N)n2)c(C)c1` (centres unmarked) [Compound 1481, N-[amino-(6-amino-2-pyridyl)-oxo-$1^6-sulfanylidene]-6-tert-butyl-2-(2,4,6-trimethylphenoxy)pyridine-3-carboxamide], the EC30 result was “+++ (“+++” means <3 uM)”.
